Test results taken from US11058117B2, “Benzoxaborole compounds” (BASF SE, priority 2017, dated 2021).
Like-named read-outs stand apart in the source and are kept apart here.

Tests used:
[1] = tested on: Avena fatua; test: greenhouse post-emergence herbicidal test; assay type: in vivo; settings: application rate 2 kg/ha, scale 0 to 100
Protocol: (§1) The culture containers used were plastic flowerpots containing loamy sand with approximately 3.0% of humus as the substrate. The seeds of the test plants were sown separately for each species.
(§2) For this purpose, the test plants were either sown directly and grown in the same containers, or they were first grown separately as seedlings and transplanted into the test containers a few days prior to treatment.
(§3) Depending on the species, the plants were kept at 10-25° C. or 20-35° C., respectively.
(§4) The test period extended over 2 to 4 weeks. During this time, the plants were tended, and their response to the individual treatments was evaluated.
(§5) Evaluation was carried out using a scale from 0 to 100. 100 means no emergence of the plants, or complete destruction of at least the aerial moieties, and 0 means no damage, or normal course of growth. A moderate herbicidal activity is given at values of at least 60, a good herbicidal activity is given at values of at least 70, and a very good herbicidal activity is given at values of at least 85.

[2] = tested on: Amaranthus retroflexus; test: greenhouse post-emergence herbicidal test; assay type: in vivo; settings: scale 0 to 100
Protocol: as §1, §2, §3, §4, §5

[3] = tested on: Abutilon theophrasti; test: greenhouse post-emergence herbicidal test; assay type: in vivo; settings: scale 0 to 100
Protocol: as §1, §2, §3, §4, §5

[4] = tested on: Setaria viridis; test: greenhouse post-emergence herbicidal test; assay type: in vivo; settings: scale 0 to 100
Protocol: as §1, §2, §3, §4, §5

[5] = tested on: Echinocloa crus-galli; settings: post-emergence, application rate 2 kg/ha; scale 0 to 100
Protocol: as §1, §2, §3, §4, §5

[6] = tested on: Setaria faberi; settings: pre-emergence, application rate 2 kg/ha; scale 0 to 100
Excerpt: as §1
(§6) The containers were irrigated gently to promote germination and growth and subsequently covered with transparent plastic hoods until the plants had rooted. This cover caused uniform germination of the test plants, unless this had been impaired by the active ingredients.
as §3, §4, §5

[7] = tested on: Amaranthus retroflexus; settings: pre-emergence, application rate 2 kg/ha; scale 0 to 100
Excerpt: as §1, §6, §3, §4, §5

[8] = tested on: Abutilon theophrasti; settings: pre-emergence, application rate 2 kg/ha; scale 0 to 100
Excerpt: as §1, §6, §3, §4, §5

[9] = tested on: Alopecurus myosuroides; settings: post-emergence, scale 0 to 100
Protocol: as §1, §2, §3, §4, §5

[10] = tested on: Polygonum convolvulus; settings: post-emergence, application rate 0.25 kg/ha; scale 0 to 100
Protocol: as §1, §2, §3, §4, §5

[11] = tested on: Sesbania exaltata; settings: post-emergence, application rate 0.25 kg/ha; scale 0 to 100
Protocol: as §1, §2, §3, §4, §5

COC(=O)C1Cc2c(Cl)cc3c(c2O1)B(O)OC3 (single isomer, unassigned) [Compound 7]
herbicidal activity against Avena fatua [1]: 100%
herbicidal activity against Amaranthus retroflexus ([2]; application rate 2 kg/ha): 100%
herbicidal activity against Abutilon theophrasti ([3]; application rate 2 kg/ha): 100%

COC(=O)C1Cc2c(Cl)cc3c(c2O1)B(O)OC3 (single isomer, unassigned) [Compound 8]
herbicidal activity against Amaranthus retroflexus ([2]; application rate 2 kg/ha): 100%
herbicidal activity against Setaria viridis ([4]; application rate 2 kg/ha): 100%
herbicidal activity against Echinocloa crus-galli [5]: 100%
herbicidal activity against Setaria faberi [6]: 80%

O=C(O)C1Oc2ccc3c(c2O1)B(O)OC3 (stereo not drawn) [Compound 2, 1-hydroxy-3H-[1,3]dioxolo[4,5-g][2,1]benzoxaborole-7-carboxylic acid]
herbicidal activity against Amaranthus retroflexus ([2]; application rate 2 kg/ha): 100%
herbicidal activity against Setaria viridis ([4]; application rate 2 kg/ha): 80%
herbicidal activity against Abutilon theophrasti ([3]; application rate 2 kg/ha): 90%

CCOC(=O)C1Oc2ccc3c(c2O1)B(O)OC3 (stereo not drawn) [Compound 3, ethyl 1-hydroxy-3H-[1,3]dioxolo[4,5-g][2,1]benzoxaborole-7-carboxylate]
herbicidal activity against Amaranthus retroflexus ([2]; application rate 2 kg/ha): 100%
herbicidal activity against Setaria viridis ([4]; application rate 2 kg/ha): 100%

COC(=O)C1Oc2ccc3c(c2O1)B(O)OC3 (stereo not drawn) [Compound 4]
herbicidal activity against Amaranthus retroflexus ([2]; application rate 2 kg/ha): 100%
herbicidal activity against Abutilon theophrasti ([3]; application rate 2 kg/ha): 100%

COC(=O)C1Cc2ccc3c(c2O1)B(O)OC3 (stereo not drawn) [Compound 5]
herbicidal activity against Amaranthus retroflexus ([2]; application rate 2 kg/ha): 100%
herbicidal activity against Setaria viridis ([4]; application rate 2 kg/ha): 100%
herbicidal activity against Echinocloa crus-galli [5]: 100%
herbicidal activity against Amaranthus retroflexus [7]: 95%
herbicidal activity against Setaria faberi [6]: 85%
herbicidal activity against Abutilon theophrasti [8]: 80%

O=C(O)C1Cc2ccc3c(c2O1)B(O)OC3 (stereo not drawn) [Compound 6]
herbicidal activity against Amaranthus retroflexus ([2]; application rate 2 kg/ha): 100%
herbicidal activity against Abutilon theophrasti ([3]; application rate 2 kg/ha): 100%
herbicidal activity against Alopecurus myosuroides ([9]; application rate 2 kg/ha): 98%
herbicidal activity against Amaranthus retroflexus [7]: 80%

COC(=O)C1Cc2c(c(Cl)cc3c2B(O)OC3C)O1 (stereo not drawn) [Compound 9, methyl-5-chloro-1-hydroxy-3-methyl-7,8-dihydro-3H-furo[2,3-g][2,1]benzoxaborole-7-carboxylate]
herbicidal activity against Avena fatua [1]: 98%
herbicidal activity against Amaranthus retroflexus ([2]; application rate 2 kg/ha): 100%
herbicidal activity against Abutilon theophrasti ([3]; application rate 2 kg/ha): 100%

COC(=O)C1Cc2c(F)cc3c(c2O1)B(O)OC3 (stereo not drawn) [Compound 12]
herbicidal activity against Amaranthus retroflexus ([2]; application rate 0.25 kg/ha): 100%
herbicidal activity against Polygonum convolvulus [10]: 95%
herbicidal activity against Sesbania exaltata [11]: 100%

O=C(O)C1Cc2c(F)cc3c(c2O1)B(O)OC3 (stereo not drawn) [Compound 13]
herbicidal activity against Amaranthus retroflexus ([2]; application rate 0.25 kg/ha): 100%
herbicidal activity against Polygonum convolvulus [10]: 85%
herbicidal activity against Sesbania exaltata [11]: 100%

COC(=O)C1Cc2ccc3c(c2C1)B(O)OC3 (stereo not drawn) [Compound 14]
herbicidal activity against Amaranthus retroflexus ([2]; application rate 0.25 kg/ha): 100%
herbicidal activity against Abutilon theophrasti ([3]; application rate 0.25 kg/ha): 100%
herbicidal activity against Sesbania exaltata [11]: 100%

CCOC(=O)C1COc2ccc3c(c2O1)B(O)OC3 (stereo not drawn) [Compound 15]
herbicidal activity against Amaranthus retroflexus ([2]; application rate 2 kg/ha): 90%
herbicidal activity against Abutilon theophrasti ([3]; application rate 2 kg/ha): 90%

CCOC(=O)C1COc2c(ccc3c2B(O)OC3)O1 (stereo not drawn) [Compound 16]
herbicidal activity against Amaranthus retroflexus ([2]; application rate 2 kg/ha): 100%

COC(=O)C1Cc2c(ccc3c2B(O)OC3)O1 (stereo not drawn) [Compound 17]
herbicidal activity against Amaranthus retroflexus ([2]; application rate 2 kg/ha): 100%

O=C(O)C1Cc2c(ccc3c2B(O)OC3)O1 (stereo not drawn) [Compound 18]
herbicidal activity against Amaranthus retroflexus ([2]; application rate 1 kg/ha): 100%
herbicidal activity against Setaria viridis ([4]; application rate 1 kg/ha): 90%

COC(=O)C1Cc2c(C(F)(F)F)cc3c(c2C1)B(O)OC3 (stereo not drawn) [Compound 19]
herbicidal activity against Amaranthus retroflexus ([2]; application rate 1 kg/ha): 100%
herbicidal activity against Setaria viridis ([4]; application rate 1 kg/ha): 90%
herbicidal activity against Abutilon theophrasti ([3]; application rate 1 kg/ha): 100%

COC(=O)C1CCc2ccc3c(c2C1)B(O)OC3 (stereo not drawn) [Compound 20]
herbicidal activity against Amaranthus retroflexus ([2]; application rate 1 kg/ha): 100%
herbicidal activity against Setaria viridis ([4]; application rate 1 kg/ha): 100%
herbicidal activity against Abutilon theophrasti ([3]; application rate 1 kg/ha): 100%

O=C(O)C1CCc2ccc3c(c2C1)B(O)OC3 (stereo not drawn) [Compound 21]
herbicidal activity against Amaranthus retroflexus ([2]; application rate 1 kg/ha): 100%
herbicidal activity against Setaria viridis ([4]; application rate 1 kg/ha): 80%
herbicidal activity against Alopecurus myosuroides ([9]; application rate 1 kg/ha): 80%

O=C(O)C1Cc2c(C(F)(F)F)cc3c(c2C1)B(O)OC3 (stereo not drawn) [Compound 22]
herbicidal activity against Amaranthus retroflexus ([2]; application rate 1 kg/ha): 100%
herbicidal activity against Abutilon theophrasti ([3]; application rate 1 kg/ha): 100%
herbicidal activity against Alopecurus myosuroides ([9]; application rate 1 kg/ha): 95%
